Patent publication US20110217727A1, “METHOD FOR PATTERNING MAGNETIC MATERIALS IN LIVE CELL, METHOD FOR IMAGING PATTERN OF MAGNETIC MATERIALS, AND APPARATUS USED FOR SAME” (MEDISCOV INC., priority 2008, published 2011)

Key:
SNF1LK-EGFP = target: T1, SNF1LK-EGFP (Homo sapiens, UniProt P57059); experiment: Fluorescent pattern of SNF1LK-EGFP co-localized with magnetic materials in live HeLa cells under a magnetic field; format: cell-based; conditions: HeLa cells transfected with CMV-SNF1LK-EGFP; ligand presented on magnetic particles (MNP); NDGA 25~50 μM; magnetic field applied; FIG. 10(B)
T1 construct: ORF(open reading frame) clone without a stop codon was purchased from Open Biosystems; expressed in transfected cells; host or cells: HeLa
Excerpt: (§1) In this embodiment, it was observed whether a magnetized pattern of a plurality of magnetic materials formed by applying a magnetic field could be imaged by fluorescent labels when a surface-modified magnetic material was labeled with a fluorescent label through a mediator indirectly as well as directly. In addition, it was identified whether a fluorescent pattern was formed and overlapped (co-localized) with a pattern formed by magnetic materials in a direction of a line of magnetic force or not.
(§2) In addition, CSK (GenBank Acc. No. NM—004383.1) or SNF1LK (GenBank Acc. No. BCO38504) which binds to dasatinib was used for another linker constituting a mediator.
A clone of SNF1LK (GenBank Acc. No. BCO38504) ORF(open reading frame) clone without a stop codon was purchased from Open Biosystems. SNF1LK ORF clone and CSK ORF clone were cloned into pCMV-DEST-EGFP by a known cloning method to produce CMV-SNF1LK-EGFP and CMV-CSK-EGFP expression vectors (Hartley, et al. (2000) DNA cloning using in vitro site-specific recombination. Genome Res. 10, 1788-1795).
After HeLa cells were subcultured to 5,000˜10,000 cells/well on a 96-well plate, the HeLa cells were transfected by the expression vector DNA prepared as above. […]

CSK-EGFP = CSK-EGFP (Homo sapiens, UniProt P41240); experiment: Fluorescent pattern of CSK-EGFP co-localized with magnetic materials in live HeLa cells under a magnetic field; format: cell-based; conditions: HeLa cells transfected with CMV-CSK-EGFP; ligand presented on magnetic particles (MNP); NDGA 25~50 μM; magnetic field applied; FIG. 10(A)
Excerpt: as §1, §2
After HeLa cells were subcultured to 5,000˜10,000 cells/well on a 96-well plate, the HeLa cells were transfected by the expression vector DNA prepared as above. […] Magnetic materials coated with dasatinib-biotin were into the cells transfected with DNA by the method mentioned in Example 2, and then NDGA (Nordihydroguaiaretic acid, Sigma) was treated to the final concentration of 25˜50 μM.
In this embodiment, Olympus fluorescence microscope, FV1000, equipped with the object lens of Uplan Apo 40×/0.85 was used to obtain transmitted images in the cells.

T1 sequence (P57059 whole entry): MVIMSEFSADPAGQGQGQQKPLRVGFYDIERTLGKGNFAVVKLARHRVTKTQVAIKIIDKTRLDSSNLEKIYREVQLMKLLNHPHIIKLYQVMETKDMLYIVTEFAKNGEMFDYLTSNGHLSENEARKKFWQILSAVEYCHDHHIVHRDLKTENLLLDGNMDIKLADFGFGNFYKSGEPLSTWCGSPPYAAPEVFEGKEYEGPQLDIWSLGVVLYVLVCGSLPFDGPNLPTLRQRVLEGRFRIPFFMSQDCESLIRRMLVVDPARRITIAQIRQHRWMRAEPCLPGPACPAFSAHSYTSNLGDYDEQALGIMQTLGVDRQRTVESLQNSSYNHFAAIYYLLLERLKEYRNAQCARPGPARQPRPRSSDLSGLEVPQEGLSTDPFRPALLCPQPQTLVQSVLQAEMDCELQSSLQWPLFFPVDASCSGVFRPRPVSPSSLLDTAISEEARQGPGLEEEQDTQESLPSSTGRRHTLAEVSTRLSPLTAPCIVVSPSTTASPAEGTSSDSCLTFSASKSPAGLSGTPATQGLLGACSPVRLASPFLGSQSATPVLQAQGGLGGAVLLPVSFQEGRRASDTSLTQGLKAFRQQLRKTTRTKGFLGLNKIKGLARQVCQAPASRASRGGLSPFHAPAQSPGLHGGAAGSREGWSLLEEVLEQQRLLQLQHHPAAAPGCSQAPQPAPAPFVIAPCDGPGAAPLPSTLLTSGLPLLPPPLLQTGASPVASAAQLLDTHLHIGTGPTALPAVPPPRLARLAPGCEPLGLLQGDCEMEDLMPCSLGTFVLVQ

- fluorescent pattern of EGFP in a magnetized direction (direction of a line of magnetic force) (SNF1LK-EGFP): identified
- fluorescent pattern of EGFP in a magnetized direction (direction of a line of magnetic force) (CSK-EGFP): identified
SMILES: Cc1nc(Nc2ncc(C(=O)Nc3c(C)cccc3Cl)s2)cc(N2CCN(CCO)CC2)n1 [dasatinib, N-(2-chloro-6-methyl-phenyl)-2-(6-(4-(2-hydroxyethyl)-piperazin-1-yl)-2-methylpyrimidin-4-ylamino)thiazole-5-carboxamide]
